Paper PMC7377239, “Cardiovascular Effects of Polychlorinated Biphenyls and Their Major Metabolites” (Environmental Health Perspectives, 2020)
Where two headings read alike, the source gives them in different places.

System: iCell cardiomyocytes (human iPSC-derived cardiomyocytes)
Experiment: Intracellular Ca2+ flux / beating parameters in iCell cardiomyocytes (FLIPR tetra), 90 min or 24 h
Type: cell-based
Conditions: Homo sapiens, Cardiomyocyte, 0.00 µM = 100.00; for activity at 0.1 µM: 0.10 µM
Protocol: Details on cardiomyocyte cell culture are described in detail elsewhere ([Grimm et al. 2015b]; [Sirenko et al. 2013a]). Briefly, tissue-culture treated 384 well plates were gelatinized with 25μL per well of 0.1% (w/v) gelatin in water for 2 h at 37°C and 5% CO2 . Individual vials of cells were thawed for 4 min in a water bath maintained at 37°C. Thawed cells were resuspended in 10ml plating medium containing 1:500 (vol/vol) penicillin/streptomycin solution at room temperature (RT). Live cell counts for each cell suspension were determined by trypan blue staining and cells were further diluted to provide final cell densities of 2×10^5 viable cells/ml. Thus, 5,000 cells suspended in 25μL media were transferred per well after the gelatin solution had been discarded. Cell culture plates were rested for 30 min at RT before they were incubated for 48 h at 37°C and 5% CO2 . Then, a media exchange with 30μL of fresh maintenance medium containing 1:500 (vol/vol) penicillin/streptomycin solution was performed, and cell media were subsequently changed every 48 h for 12 d. On the experiment day, the medium was completely exchanged with either 25μL (for Ca^2+ flux assay) or 40μL (for imaging) of fresh medium.
Responses of iCell®-cardiomyocytes to drugs and chemicals were evaluated using intracellular Ca^2+ flux measurements ([Grimm et al. 2015b]; [Sirenko et al. 2013b]). For experiments, 20 mM stock solutions of PCBs and PCB metabolites were prepared in DMSO ( 200× ). Chemical working solutions ( 5× ) were prepared using cardiomyocyte maintenance medium and contained 2.5% (vol/vol) DMSO. These chemical master plates were prepared to include all chemicals in concentration–response (0.05, 0.5, 5, 50, and 500μM ). Negative controls included media-only and vehicle control (i.e., 0.5% vol/vol DMSO in cell culture media) wells. Positive assay controls were consistent with previously published reports ([Grimm et al. 2018]) and included TAB ( 50μM ) as a cytotoxic control, and isoproterenol ( 0.1–10μM ), propranolol ( 0.1–5 μM ), cisapride ( 0.01–1μM ), and doxorubicin ( 0.1–5μM ) as chemicals associated with specific effects on beating and ion flux. Each test chemical was screened in triplicate for each concentration.
Experiments started with the addition of 25μL of prewarmed 2× concentrated calcium dye reagent to sample wells containing 25μL maintenance media. Microplates were then acclimated for 2 h at 37°C. Following equilibration, cardiomyocyte sample wells were treated simultaneously by the addition of 12.5μL of prewarmed 5× chemical solution to iCell®-cardiomyocytes using the automated liquid handler in the FLIPR tetra (Molecular Devices). Treated cell cultures were incubated for either 90 min or 24 h. After the conclusion of the treatment period, the Ca^2+ flux was measured for 100 s at a frequency of 8 Hz using the integrated fluorescence plate reader in the FLIPR tetra (Molecular Devices) using an emission wavelength range of λemission=515–575 nm ( λexcitation=470–495 nm ). Additional instrument settings included exposure time per read of 0.05s, a gain of 2000, an excitation intensity of 30%, and an internal temperature of 37°C.
Ca^2+ flux data were processed in R studio (version 1.0.136, with R version 3.3.2; R Development Core Team) as described elsewhere ([Blanchette et al. 2019]; [Burnett et al. 2019]). Calculated quantitative metrics included the means and coefficients of variation (CV) of the peak height, which can be indicative of cytotoxicity, inhibition, or stimulation of beating. Means of peak frequency, an indicator of positive or negative […], and CV of peak spacing, an indicator of irregular beating, were also derived from Ca^2+ flux traces. Finally, the mean ratio of the decay over rise time was calculated. Increases in the decay/rise time ratio are reflective of delayed repolarization and are a measure for QT prolongation. […]

[1] = 1.5 h, read-out: cm.amp.avg.90min
[2] = 1.5 h, read-out: cm.amp.cv.90min
[3] = 1.5 h, read-out: cm.decay.rise.90min
[4] = 1.5 h, read-out: cm.spacing.cv.90min
[5] = 24 h, read-out: cm.amp.avg.24hrs
[6] = 24 h, read-out: cm.amp.cv.24hrs
[7] = 24 h, read-out: cm.decay.rise.24hrs
[8] = 24 h, read-out: cm.spacing.cv.24hrs

Structure (SMILES): COc1ccc(-c2ccc(Cl)cc2)cc1 [4'-OMe PCB3]
- activity at 0.01 µM [1]: 96.9%
- activity at 0.01 µM [2]: 88.9%
- activity at 0.01 µM (1.5 h, read-out: cm.bpm.90min): 103%
- activity at 0.01 µM [3]: 99.4%
- activity at 0.01 µM [4]: 117%
- activity at 0.1 µM [1]: 93.5%
- activity at 0.1 µM [2]: 102%
- activity at 0.1 µM (1.5 h, read-out: cm.bpm.90min): 100%
- activity at 0.1 µM [3]: 102%
- activity at 0.1 µM [4]: 99.4%
- activity at 1 µM [1]: 106%
- activity at 1 µM [2]: 117%
- activity at 1 µM (1.5 h, read-out: cm.bpm.90min): 96.5%
- activity at 1 µM [3]: 95%
- activity at 1 µM [4]: 92%
- activity at 10 µM [1]: 103%
- activity at 10 µM [2]: 96%
- activity at 10 µM (1.5 h, read-out: cm.bpm.90min): 107%
- activity at 10 µM [3]: 95.2%
- activity at 10 µM [4]: 96.4%
- activity at 100 µM [1]: 83.2%
- activity at 100 µM [2]: 175%
- activity at 100 µM (1.5 h, read-out: cm.bpm.90min): 208%
- activity at 100 µM [3]: 94.6%
- activity at 100 µM [4]: 140%
- activity at 0.01 µM [5]: 135%
- activity at 0.01 µM [6]: 92.2%
- activity at 0.01 µM (24 h, read-out: cm.bpm.24hrs): 111%
- activity at 0.01 µM [7]: 98%
- activity at 0.01 µM [8]: 116%
- activity at 0.1 µM [5]: 30.6%
- activity at 0.1 µM [6]: 60.1%
- activity at 0.1 µM (24 h, read-out: cm.bpm.24hrs): 50.6%
- activity at 0.1 µM [7]: 49%
- activity at 0.1 µM [8]: 49.7%
- activity at 1 µM [5]: 81.2%
- activity at 1 µM [6]: 110%
- activity at 1 µM (24 h, read-out: cm.bpm.24hrs): 95.5%
- activity at 1 µM [7]: 98.7%
- activity at 1 µM [8]: 85.6%
- activity at 10 µM [5]: 94.7%
- activity at 10 µM [6]: 93.1%
- activity at 10 µM (24 h, read-out: cm.bpm.24hrs): 119%
- activity at 10 µM [7]: 90.5%
- activity at 10 µM [8]: 112%
- activity at 100 µM [5]: 30.7%
- activity at 100 µM [6]: 58%
- activity at 100 µM (24 h, read-out: cm.bpm.24hrs): 81.2%
- activity at 100 µM [7]: 38.5%
- activity at 100 µM [8]: 76.1%

Structure (SMILES): Clc1cccc(-c2cccc(Cl)c2)c1 [PCB11]
- activity at 0.01 µM [1]: 99.2%
- activity at 0.01 µM [2]: 103%
- activity at 0.01 µM (1.5 h, read-out: cm.bpm.90min): 103%
- activity at 0.01 µM [3]: 101%
- activity at 0.01 µM [4]: 93.4%
- activity at 0.1 µM [1]: 102%
- activity at 0.1 µM [2]: 91.4%
- activity at 0.1 µM (1.5 h, read-out: cm.bpm.90min): 103%
- activity at 0.1 µM [3]: 98.2%
- activity at 0.1 µM [4]: 89.8%
- activity at 1 µM [1]: 105%
- activity at 1 µM [2]: 97.9%
- activity at 1 µM (1.5 h, read-out: cm.bpm.90min): 95.3%
- activity at 1 µM [3]: 99.6%
- activity at 1 µM [4]: 107%
- activity at 10 µM [1]: 94.8%
- activity at 10 µM [2]: 99.8%
- activity at 10 µM (1.5 h, read-out: cm.bpm.90min): 114%
- activity at 10 µM [3]: 91.8%
- activity at 10 µM [4]: 101%
- activity at 100 µM [1]: 22.3%
- activity at 100 µM [2]: 139%
- activity at 100 µM (1.5 h, read-out: cm.bpm.90min): 0%
- activity at 100 µM [3]: 54.6%
- activity at 100 µM [4]: 66.2%
- activity at 0.01 µM [5]: 137%
- activity at 0.01 µM [6]: 77.1%
- activity at 0.01 µM (24 h, read-out: cm.bpm.24hrs): 108%
- activity at 0.01 µM [7]: 93.4%
- activity at 0.01 µM [8]: 127%
- activity at 0.1 µM [5]: 134%
- activity at 0.1 µM [6]: 69.8%
- activity at 0.1 µM (24 h, read-out: cm.bpm.24hrs): 105%
- activity at 0.1 µM [7]: 98.1%
- activity at 0.1 µM [8]: 98.2%
- activity at 1 µM [5]: 130%
- activity at 1 µM [6]: 77.5%
- activity at 1 µM (24 h, read-out: cm.bpm.24hrs): 93.6%
- activity at 1 µM [7]: 108%
- activity at 1 µM [8]: 92.8%
- activity at 10 µM [5]: 110%
- activity at 10 µM [6]: 90.8%
- activity at 10 µM (24 h, read-out: cm.bpm.24hrs): 106%
- activity at 10 µM [7]: 111%
- activity at 10 µM [8]: 98.2%
- activity at 100 µM [5]: 0%
- activity at 100 µM [6]: 0%
- activity at 100 µM (24 h, read-out: cm.bpm.24hrs): 0%
- activity at 100 µM [7]: 0%
- activity at 100 µM [8]: 0%
